Tests used:
Assay in all cases: relative viability (nuclei count vs DMSO), 5 days (fraction); higher = more cells survive
NCI-H2126 = tested on: NCI-H2126
Outline: (§1)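 Nuclei were stained with Hoechst during a one-step fixation (final 0.05% Triton X-100, 1% formaldehyde, 1 ug/ml Hoechst) carried out 5 days after dosing, then counted on 4× images. The cells, lung cancer lines in 1536-well plates, had been dosed by pin tool the day after seeding with one drug alone or a fixed anchor-drug dose plus five library-drug doses (not always all listed) in √10 steps. Relative viability is the nuclei count in treated wells divided by that in vehicle wells, and each value is the median of duplicate plates.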

NCI-H1666 = tested on: NCI-H1666
Outline: as §1

LCLC-103H = tested on: LCLC-103H
Outline: as §1

NCI-H2405 = tested on: NCI-H2405
Outline: as §1

NCI-H2342 = tested on: NCI-H2342
Outline: as §1

NCI-H322M = tested on: NCI-H322M
Outline: as §1

SW 1573 = tested on: SW 1573
Outline: as §1

EMC-BAC-2 = tested on: EMC-BAC-2
Outline: as §1

SW 900 = tested on: SW 900
Outline: as §1

HCC-827 = tested on: HCC-827
Outline: as §1

EPLC-272H = tested on: EPLC-272H
Outline: as §1

LK-2 = tested on: LK-2
Outline: as §1

PC-14 = tested on: PC-14
Outline: as §1

NCI-H23 = tested on: NCI-H23
Outline: as §1

ChaGo-K-1 = tested on: ChaGo-K-1
Outline: as §1

SK-LU-1 = tested on: SK-LU-1
Outline: as §1

RERF-LC-KJ = tested on: RERF-LC-KJ
Outline: as §1

NCI-H1975 = tested on: NCI-H1975
Outline: as §1

EKVX = tested on: EKVX
Outline: as §1

LU99A = tested on: LU99A
Outline: as §1

HCC-78 = tested on: HCC-78
Outline: as §1

Question: Which results are given for Nc1ccn([C@@H]2O[C@H](CO)[C@@H](O)[C@@H]2O)c(=O)n1 [Cytarabine] + Cc1cc(Nc2cc(N3CCN(C)CC3)nc(Sc3ccc(NC(=O)C4CC4)cc3)n2)n[nH]1 [Tozasertib] (partner 0.1 µM)?
Answer: relative viability (NCI-H2126; first compound 0.005 µM): 0.655; relative viability (NCI-H2126; first compound 0.01581 µM): 0.774; relative viability (NCI-H2126; first compound 0.05 µM): 0.607; relative viability (NCI-H2126; first compound 0.1581 µM): 0.53; relative viability (NCI-H2126; first compound 0.5 µM): 0.348; relative viability (NCI-H1666; first compound 0.005 µM): 0.559; relative viability (NCI-H1666; first compound 0.01581 µM): 0.628; relative viability (NCI-H1666; first compound 0.05 µM): 0.469; relative viability (NCI-H1666; first compound 0.1581 µM): 0.446; relative viability (NCI-H1666; first compound 0.5 µM): 0.423; relative viability (LCLC-103H; first compound 0.005 µM): 0.568; relative viability (LCLC-103H; first compound 0.01581 µM): 0.487; relative viability (LCLC-103H; first compound 0.05 µM): 0.413; relative viability (LCLC-103H; first compound 0.1581 µM): 0.436; relative viability (LCLC-103H; first compound 0.5 µM): 0.373; relative viability (NCI-H2405; first compound 0.005 µM): 0.66; relative viability (NCI-H2405; first compound 0.01581 µM): 0.712; relative viability (NCI-H2405; first compound 0.05 µM): 0.56; relative viability (NCI-H2405; first compound 0.1581 µM): 0.429; relative viability (NCI-H2405; first compound 0.5 µM): 0.371; relative viability (NCI-H2342; first compound 0.005 µM): 0.507; relative viability (NCI-H2342; first compound 0.01581 µM): 0.616; relative viability (NCI-H2342; first compound 0.05 µM): 0.496; relative viability (NCI-H2342; first compound 0.1581 µM): 0.506; relative viability (NCI-H2342; first compound 0.5 µM): 0.459; relative viability (NCI-H322M; first compound 0.005 µM): 0.454; relative viability (NCI-H322M; first compound 0.01581 µM): 0.416; relative viability (NCI-H322M; first compound 0.05 µM): 0.432; relative viability (NCI-H322M; first compound 0.1581 µM): 0.364; relative viability (NCI-H322M; first compound 0.5 µM): 0.303; relative viability (SW 1573; first compound 0.005 µM): 0.184; relative viability (SW 1573; first compound 0.01581 µM): 0.161; relative viability (SW 1573; first compound 0.05 µM): 0.128; relative viability (SW 1573; first compound 0.1581 µM): 0.169; relative viability (SW 1573; first compound 0.5 µM): 0.101; relative viability (EMC-BAC-2; first compound 0.005 µM): 0.302; relative viability (EMC-BAC-2; first compound 0.01581 µM): 0.288; relative viability (EMC-BAC-2; first compound 0.05 µM): 0.242; relative viability (EMC-BAC-2; first compound 0.1581 µM): 0.233; relative viability (EMC-BAC-2; first compound 0.5 µM): 0.168; relative viability (SW 900; first compound 0.005 µM): 0.555; relative viability (SW 900; first compound 0.01581 µM): 0.402; relative viability (SW 900; first compound 0.05 µM): 0.287; relative viability (SW 900; first compound 0.1581 µM): 0.233; relative viability (SW 900; first compound 0.5 µM): 0.134; relative viability (HCC-827; first compound 0.005 µM): 0.32; relative viability (HCC-827; first compound 0.01581 µM): 0.282; relative viability (HCC-827; first compound 0.05 µM): 0.286; relative viability (HCC-827; first compound 0.1581 µM): 0.187; relative viability (HCC-827; first compound 0.5 µM): 0.172; relative viability (EPLC-272H; first compound 0.005 µM): 0.294; relative viability (EPLC-272H; first compound 0.01581 µM): 0.199; relative viability (EPLC-272H; first compound 0.05 µM): 0.289; relative viability (EPLC-272H; first compound 0.1581 µM): 0.29; relative viability (EPLC-272H; first compound 0.5 µM): 0.261; relative viability (LK-2; first compound 0.005 µM): 0.213; relative viability (LK-2; first compound 0.01581 µM): 0.185; relative viability (LK-2; first compound 0.05 µM): 0.168; relative viability (LK-2; first compound 0.1581 µM): 0.157; relative viability (LK-2; first compound 0.5 µM): 0.215; relative viability (PC-14; first compound 0.005 µM): 0.404; relative viability (PC-14; first compound 0.01581 µM): 0.448; relative viability (PC-14; first compound 0.05 µM): 0.248; relative viability (PC-14; first compound 0.1581 µM): 0.157; relative viability (PC-14; first compound 0.5 µM): 0.0594; relative viability (NCI-H23; first compound 0.005 µM): 0.362; relative viability (NCI-H23; first compound 0.01581 µM): 0.32; relative viability (NCI-H23; first compound 0.05 µM): 0.243; relative viability (NCI-H23; first compound 0.1581 µM): 0.55; relative viability (NCI-H23; first compound 0.5 µM): 0.244; relative viability (ChaGo-K-1; first compound 0.005 µM): 0.188; relative viability (ChaGo-K-1; first compound 0.01581 µM): 0.207; relative viability (ChaGo-K-1; first compound 0.05 µM): 0.208; relative viability (ChaGo-K-1; first compound 0.1581 µM): 0.16; relative viability (ChaGo-K-1; first compound 0.5 µM): 0.149; relative viability (SK-LU-1; first compound 0.005 µM): 0.301; relative viability (SK-LU-1; first compound 0.01581 µM): 0.325; relative viability (SK-LU-1; first compound 0.05 µM): 0.279; relative viability (SK-LU-1; first compound 0.1581 µM): 0.185; relative viability (SK-LU-1; first compound 0.5 µM): 0.189; relative viability (RERF-LC-KJ; first compound 0.005 µM): 0.385; relative viability (RERF-LC-KJ; first compound 0.01581 µM): 0.512; relative viability (RERF-LC-KJ; first compound 0.05 µM): 0.353; relative viability (RERF-LC-KJ; first compound 0.1581 µM): 0.393; relative viability (RERF-LC-KJ; first compound 0.5 µM): 0.266; relative viability (NCI-H1975; first compound 0.005 µM): 0.681; relative viability (NCI-H1975; first compound 0.01581 µM): 0.799; relative viability (NCI-H1975; first compound 0.05 µM): 0.728; relative viability (NCI-H1975; first compound 0.1581 µM): 0.317; relative viability (NCI-H1975; first compound 0.5 µM): 0.206; relative viability (EKVX; first compound 0.005 µM): 0.326; relative viability (EKVX; first compound 0.01581 µM): 0.35; relative viability (EKVX; first compound 0.05 µM): 0.333; relative viability (EKVX; first compound 0.1581 µM): 0.272; relative viability (EKVX; first compound 0.5 µM): 0.19; relative viability (LU99A; first compound 0.005 µM): 0.263; relative viability (LU99A; first compound 0.01581 µM): 0.273; relative viability (LU99A; first compound 0.05 µM): 0.275; relative viability (LU99A; first compound 0.1581 µM): 0.288; relative viability (LU99A; first compound 0.5 µM): 0.281; relative viability (HCC-78; first compound 0.005 µM): 0.518; relative viability (HCC-78; first compound 0.01581 µM): 0.489; relative viability (HCC-78; first compound 0.05 µM): 0.389; relative viability (HCC-78; first compound 0.1581 µM): 0.333; relative viability (HCC-78; first compound 0.5 µM): 0.253

Source: the supplement of paper PMC10307832
